Experimental data: patent US20250100996A1, “HETEROCYCLOALKYL AND HETEROARYL COMPOUNDS AND PHARMACEUTICAL COMPOSITIONS THAT MODULATE IKZF2” (Plexium, Inc., priority 2021, published 2025)

Columns and labels:
[1] = target: T1, GSPT1 (Homo sapiens, UniProt P15170); test: GSPT1 reporter degradation assay (HEK293 hGSPT1 HiBiT-tagged cells); format: cell-based; details: 24 hour incubation
T1 construct: HiBiT-tagged cells were generated using CRISPR-Cas12a technology; endogenous in cells; host or cells: HEK293 (endogenous GSPT1 locus edited with HiBiT knock-in)
T1 sequence (Q96SW2 whole entry partner): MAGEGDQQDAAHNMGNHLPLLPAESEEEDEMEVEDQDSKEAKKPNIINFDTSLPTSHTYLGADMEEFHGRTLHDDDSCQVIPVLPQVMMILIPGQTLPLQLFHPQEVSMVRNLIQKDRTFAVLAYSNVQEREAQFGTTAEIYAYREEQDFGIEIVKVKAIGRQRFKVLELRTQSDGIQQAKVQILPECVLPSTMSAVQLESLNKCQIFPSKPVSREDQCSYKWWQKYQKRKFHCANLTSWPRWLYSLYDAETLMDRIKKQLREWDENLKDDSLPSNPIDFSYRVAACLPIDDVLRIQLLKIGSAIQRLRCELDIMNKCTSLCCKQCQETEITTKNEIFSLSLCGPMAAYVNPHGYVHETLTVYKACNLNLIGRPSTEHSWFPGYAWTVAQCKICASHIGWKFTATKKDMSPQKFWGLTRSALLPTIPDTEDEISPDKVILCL
T1 sequence (Q16531 whole entry partner): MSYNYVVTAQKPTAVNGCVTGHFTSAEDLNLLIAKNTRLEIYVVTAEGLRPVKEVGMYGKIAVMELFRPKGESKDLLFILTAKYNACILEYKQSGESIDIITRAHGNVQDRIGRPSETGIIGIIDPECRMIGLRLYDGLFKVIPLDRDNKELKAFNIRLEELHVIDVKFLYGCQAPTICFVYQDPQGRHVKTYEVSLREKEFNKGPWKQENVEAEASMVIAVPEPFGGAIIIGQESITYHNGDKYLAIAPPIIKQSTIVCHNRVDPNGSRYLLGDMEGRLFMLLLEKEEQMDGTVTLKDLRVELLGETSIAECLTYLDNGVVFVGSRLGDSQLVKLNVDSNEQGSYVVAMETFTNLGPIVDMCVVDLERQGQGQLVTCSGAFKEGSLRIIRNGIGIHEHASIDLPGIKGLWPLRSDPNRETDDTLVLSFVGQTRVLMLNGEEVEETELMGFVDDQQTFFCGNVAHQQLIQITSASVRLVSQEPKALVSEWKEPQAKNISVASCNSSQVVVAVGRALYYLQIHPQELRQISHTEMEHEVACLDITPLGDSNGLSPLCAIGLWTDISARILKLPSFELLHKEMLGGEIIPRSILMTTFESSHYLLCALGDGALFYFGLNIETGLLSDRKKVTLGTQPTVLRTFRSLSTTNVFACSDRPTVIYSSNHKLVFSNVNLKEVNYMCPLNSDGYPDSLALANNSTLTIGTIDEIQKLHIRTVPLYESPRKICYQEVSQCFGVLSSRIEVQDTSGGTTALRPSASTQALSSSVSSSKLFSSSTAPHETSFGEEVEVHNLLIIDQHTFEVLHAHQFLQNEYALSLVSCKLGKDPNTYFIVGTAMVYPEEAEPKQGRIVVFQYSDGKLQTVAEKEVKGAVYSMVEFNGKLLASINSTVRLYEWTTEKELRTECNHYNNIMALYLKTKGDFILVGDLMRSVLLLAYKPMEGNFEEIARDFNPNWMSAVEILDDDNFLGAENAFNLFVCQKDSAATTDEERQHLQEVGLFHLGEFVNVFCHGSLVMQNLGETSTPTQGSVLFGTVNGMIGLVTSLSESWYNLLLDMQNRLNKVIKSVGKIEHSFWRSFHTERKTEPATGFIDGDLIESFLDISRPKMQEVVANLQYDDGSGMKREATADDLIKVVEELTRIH
T1 sequence (P15170 whole entry): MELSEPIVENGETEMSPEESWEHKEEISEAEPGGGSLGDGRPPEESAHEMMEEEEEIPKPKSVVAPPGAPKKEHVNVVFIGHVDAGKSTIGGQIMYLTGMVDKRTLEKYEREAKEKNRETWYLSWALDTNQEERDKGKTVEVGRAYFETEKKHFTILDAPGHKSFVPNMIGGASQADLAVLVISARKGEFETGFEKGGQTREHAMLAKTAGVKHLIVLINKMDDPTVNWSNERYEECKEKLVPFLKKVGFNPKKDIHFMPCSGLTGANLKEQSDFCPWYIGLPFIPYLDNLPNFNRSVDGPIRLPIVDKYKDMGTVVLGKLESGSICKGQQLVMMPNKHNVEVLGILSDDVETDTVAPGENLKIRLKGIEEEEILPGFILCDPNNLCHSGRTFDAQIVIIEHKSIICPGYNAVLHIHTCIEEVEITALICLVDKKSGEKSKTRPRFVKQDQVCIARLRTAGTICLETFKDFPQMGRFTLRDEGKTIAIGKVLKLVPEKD
Method: HEK293_hGSPTl_HiBiT-tagged cells were generated using CRISPR-Cas12a technology. Briefly, ˜400,000 HEK293 cells were transiently co-transfected with precomplexed ribonuclear proteins (RNPs) consisting of 80 pmol of crRNA (IDT), 62 pmol of Cas12a protein (IDT), 3 μg of ssODN donor (IDT; Alt® modifications), 78 pmol of electroporation enhancer (IDT), and 200 ng of pMaxGFP (Lonza). The transfection was performed via nucleofection (Lonza, 4D-Nucleofector X-unit) using solution P3 and program CM-130 in a ([…]) cuvette. Five days post-nucleofection, cells were single-cell-sorted for GFP+(transfected) cells by FACs in 96-well plates and clonally selected. Clones were screened and verified for the desired modification via targeted deep sequencing using gene-specific primers with partial Illumina adapter overhangs as previously described. In brief, clonal cell pellets were harvested, lysed, and used to generate gene-specific amplicons with partial Illumina adapters in PCR #1. Amplicons were indexed in PCR #2 and pooled with other targeted amplicons for other loci to create sequence diversity. Additionally, 10% PhiX sequencing control V3 (Illumina) was added to the pooled amplicon library prior to running the sample on a Miseq Sequencer System (Illumina) to generate paired 2×250 bp reads. Samples were demultiplexed using the index sequences, fastq files were generated, and NGS analysis was performed using CRIS.py. Final clones were authenticated using the PowerPlex fusion system (Promega) and tested negative for mycoplasma by the MycoAlertTMPlus mycoplasma detection kit (Lonza).
Editing construct sequences and screening primers are outlined below (sequence from 5′ to 3′). hGSPT1Cas12acrRNA, CAGE635.GSPT1.g1: […]; CAGE635.g1.anti.ssODN: ttcctcacagtattgtgcagggtcatcaagaaaatgctta[…] CAGCCGCTCACgtcCttctctggaaccagtttcagaacttttccaattgcaatggtcttacctagaaatgaaattttaa (HiBiT tag and silent blocking modifications to prevent Cas12a recutting after integration are in upper case); CAGE635.hGSPT1.DS.F: […]; CAGE635.hGSPT1.DS.R: GTGAA GTAGGCTTCTGCAGTC.
The GSPT1 degradation assay was carried out by harvesting the HEK 293T reporter cell lines and resuspending the cells in media formulated for reduced background fluorescence (FluoroBrite; Thermo Fisher). The respective cell lines were seeded at a density of 8,000 cells/well into white-opaque 384-well optical grade assay tissue culture plates (Greiner 781080-20). The cells were incubated overnight at 37° C. to allow for attachment to the assay plate. Dilutions of the compounds were prepared in DMSO from 10 mM compound stocks. Test compounds were added in a 10-point dilution series (typically 10 μM to 100 pM) using a TECAN D300e Digital Dispenser with an upper limit of 0.5% final DMSO. Plates were centrifuged at 320×g for 2 minutes at room temperature, and subsequently incubated at 37° C.
After 24 hour incubation with the compounds, the plates were allowed to cool to room temperature for 10 minutes. 30 μL of HiBiT lytic buffer+1:50 HiBiT substrate Solution were added to each well. Plates were centrifuged at 320×g for 2 minutes at room temperature and then incubated with shaking at room temperature for 10 minutes covered with foil. Plates were read on a CLARIOstar microplate reader (BMG LabTech), measuring at 450 nm (donor emission) and 610 nm or 630 nm (acceptor emission). The DC50 values were determined by regression to best fit four-parameter logistic curves using GraphPad Prism.

[2] = target: T2, human E3 ligase component cereblon (CRBN) (Homo sapiens, UniProt Q96SW2); test: Cereblon (CRBN) target engagement, NanoBRET TE Intracellular E3 Ligase Assay in transfected HEK-293T cells; details: read-out: CRBN Binding EC50
T2 construct: host or cells: HEK293T
T2 sequence (Q96SW2 whole entry): as the sequence (Q96SW2 whole entry partner) above
T2 sequence (Q16531 whole entry partner): as the sequence (Q16531 whole entry partner) above
Procedure, shortened: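 HEK-293T cells transiently co-transfected with NanoLuc-CRBN (N-terminal NanoLuc) and DDB1 were dosed with CRBN tracer and an 11-point compound series (typically 10 μM to 100 pM) for 2 h at 37° C. BRET at 450/610 nm gave IC50 by four-parameter logistic fit.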

[3] = target: T3, IKZF1 (Ikaros) (Homo sapiens, UniProt Q13422); test: IKZF1 reporter degradation assay (HEK 293T IKZF1-mNeonGreen reporter cell line); format: cell-based; details: HEK 293T IKZF1-mNeonGreen reporter, 24 hours incubation
T3 construct: mScarlet (behind P2A) (C, cleaved yes); expressed in transfected cells
T3 sequence (Q96SW2 whole entry partner): as the sequence (Q96SW2 whole entry partner) above
T3 sequence (Q16531 whole entry partner): as the sequence (Q16531 whole entry partner) above
T3 sequence (Q13422 whole entry): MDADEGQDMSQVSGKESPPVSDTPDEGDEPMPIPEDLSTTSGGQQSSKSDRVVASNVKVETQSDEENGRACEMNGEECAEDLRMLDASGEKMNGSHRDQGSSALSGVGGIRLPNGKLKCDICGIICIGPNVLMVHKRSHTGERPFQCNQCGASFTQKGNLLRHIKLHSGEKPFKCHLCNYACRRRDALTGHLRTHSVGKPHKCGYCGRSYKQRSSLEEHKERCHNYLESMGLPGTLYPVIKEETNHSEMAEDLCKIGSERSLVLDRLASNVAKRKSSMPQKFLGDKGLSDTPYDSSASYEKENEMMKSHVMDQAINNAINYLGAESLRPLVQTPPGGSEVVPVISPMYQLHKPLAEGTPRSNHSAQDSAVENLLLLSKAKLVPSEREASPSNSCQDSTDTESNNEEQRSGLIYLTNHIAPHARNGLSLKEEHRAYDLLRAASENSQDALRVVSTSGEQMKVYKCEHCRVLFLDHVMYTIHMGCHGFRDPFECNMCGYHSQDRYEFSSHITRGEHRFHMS
Procedure, shortened: (§1)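 Degradation is measured as loss of mNeonGreen fused C-terminally to each human IKZF protein in clonal HEK 293T cells, with co-expressed mScarlet as reference. Treatment lasts 24 h at 37 °C. DC50 is derived by logistic fitting of percent positive cells.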

[4] = target: T4, IKZF3 (Aiolos) (Homo sapiens, UniProt Q9UKT9); test: IKZF3 reporter degradation assay (HEK 293T IKZF3-mNeonGreen reporter cell line); format: cell-based; details: HEK 293T IKZF3-mNeonGreen reporter, 24 hours incubation
T4 construct: Leu-Asp junction (codons ctcgac before the linker); mScarlet (behind P2A) (C, cleaved yes); expressed in transfected cells
T4 sequence (Q96SW2 whole entry partner): as the sequence (Q96SW2 whole entry partner) above
T4 sequence (Q16531 whole entry partner): as the sequence (Q16531 whole entry partner) above
T4 sequence (Q9UKT9 whole entry): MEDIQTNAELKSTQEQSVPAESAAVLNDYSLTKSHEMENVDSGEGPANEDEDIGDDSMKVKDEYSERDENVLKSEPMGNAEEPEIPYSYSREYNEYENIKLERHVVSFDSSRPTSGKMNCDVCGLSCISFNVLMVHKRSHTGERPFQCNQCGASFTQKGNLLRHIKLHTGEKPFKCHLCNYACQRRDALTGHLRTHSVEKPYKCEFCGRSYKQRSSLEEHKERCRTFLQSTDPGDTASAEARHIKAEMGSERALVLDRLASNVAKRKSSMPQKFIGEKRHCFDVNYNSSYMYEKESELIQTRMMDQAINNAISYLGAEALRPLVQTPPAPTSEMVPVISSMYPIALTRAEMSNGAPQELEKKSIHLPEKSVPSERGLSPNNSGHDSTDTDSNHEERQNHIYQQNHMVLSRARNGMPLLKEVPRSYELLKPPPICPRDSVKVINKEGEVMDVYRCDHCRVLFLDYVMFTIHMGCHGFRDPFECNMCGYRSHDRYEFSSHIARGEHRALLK
Procedure, shortened: as §1

[5] = target: T5, IKZF2 (Helios) (Homo sapiens, UniProt Q9UKS7); test: IKZF2 reporter degradation assay (HEK 293T IKZF2-mNeonGreen reporter cell line); format: cell-based; details: HEK 293T IKZF2-mNeonGreen reporter, 24 hours incubation
T5 construct: Leu-Asp junction (codons ctcgac before the linker); mScarlet (behind P2A) (C, cleaved yes); expressed in transfected cells
T5 sequence (Q9UKS7 whole entry): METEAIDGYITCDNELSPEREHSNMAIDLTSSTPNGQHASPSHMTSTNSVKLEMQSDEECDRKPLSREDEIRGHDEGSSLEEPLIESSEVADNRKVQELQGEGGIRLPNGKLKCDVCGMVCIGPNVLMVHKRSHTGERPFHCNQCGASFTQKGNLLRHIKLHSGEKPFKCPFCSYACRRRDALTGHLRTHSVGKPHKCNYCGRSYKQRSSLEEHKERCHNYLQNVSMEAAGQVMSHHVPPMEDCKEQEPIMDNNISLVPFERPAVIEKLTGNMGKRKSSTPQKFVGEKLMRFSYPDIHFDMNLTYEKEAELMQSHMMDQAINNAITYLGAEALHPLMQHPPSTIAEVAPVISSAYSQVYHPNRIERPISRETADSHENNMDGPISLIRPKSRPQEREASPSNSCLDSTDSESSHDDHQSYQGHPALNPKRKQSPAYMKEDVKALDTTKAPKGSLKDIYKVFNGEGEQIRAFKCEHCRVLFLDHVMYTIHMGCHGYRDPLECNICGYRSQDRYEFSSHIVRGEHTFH
T5 sequence (Q96SW2 whole entry, further chain): as the sequence (Q96SW2 whole entry partner) above
T5 sequence (Q16531 whole entry partner): as the sequence (Q16531 whole entry partner) above
Procedure, shortened: as §1

[6] = target: T6, IKZF2 (Helios) (Homo sapiens, UniProt Q96SW2+Q9UKS7); test: as above; format: cell-based; details: HEK-293T, 24 h, @ 1 μM, HEK 293T IKZF2-mNeonGreen reporter, 24 hours incubation
T6 construct: Leu-Asp junction (codons ctcgac before the linker); mScarlet (behind P2A) (C, cleaved yes); expressed in transfected cells
T6 sequence (Q9UKS7 whole entry): as the sequence (Q9UKS7 whole entry) above
T6 sequence (Q96SW2 whole entry): as the sequence (Q96SW2 whole entry partner) above
T6 sequence (Q16531 whole entry partner): as the sequence (Q16531 whole entry partner) above
Procedure, shortened: as §1

Row | SMILES | DC50 [1] | EC50 [2] | DC50 [3] | DC50 [4] | DC50 [5] | inhibition at 1 µM [6]
1 | Cc1cnc(C2CN([C@H]3CCCC3Oc3ccc4c(c3)CN(C3CCC(=O)NC3=O)C4=O)C2)o1 (mixture of isomers) [Compound 151-B, Rac-3-(5-(((trans)-2-(3-(5-methyloxazol-2-yl)azetidin-1-yl)cyclopentyl)oxy)-1-oxoisoindolin-2-yl)piperidine-2,6-dione] | > 30000 nM | 79 nM | – | – | – | –
2 | O=C1CCC(N2Cc3cc(OC4CCCCC4N4CC(C(=O)N5CCCCC5)C4)ccc3C2=O)C(=O)N1 (single isomer, unassigned) [Compound 23-A, 3-(1-oxo-5-((2-(3-(piperidine-1-carbonyl)azetidin-1-yl)cyclohexyl)oxy)isoindolin-2-yl)piperidine-2,6-dione] | > 30000 nM | – | – | – | – | –
3 | O=C1CCC(N2Cc3cc(OC4CCCCC4N4CC(c5ncc(C6CC6)cn5)C4)ccc3C2=O)C(=O)N1 (stereo not drawn) [Compound 177-B, 3-(5-((2-(3-(5-cyclopropylpyrimidin-2-yl)azetidin-1-yl)cyclohexyl)oxy)-1-oxoisoindolin-2-yl)piperidine-2,6-dione] | – | 2 nM | > 30000 nM | > 30000 nM | 4 nM | 70.3%
4 | Cc1nccc(C2CN(C3CCCCC3Oc3ccc4c(c3)CN(C3CCC(=O)NC3=O)C4=O)C2)n1 (stereo not drawn) [Compound 190-B, 3-(5-((2-(3-(2-methylpyrimidin-4-yl)azetidin-1-yl)cyclohexyl)oxy)-1-oxoisoindolin-2-yl)piperidine-2,6-dione] | – | 44 nM | > 30000 nM | > 30000 nM | 71 nM | 74.3%
5 | O=C1CCC(N2Cc3cc(O[C@@H]4CCCC[C@@H]4N4CC(c5ccncc5Cl)C4)ccc3C2=O)C(=O)N1 (mixture of isomers) [Compound 162-B, Rac-3-(5-(((cis)-2-(3-(3-chloropyridin-4-yl)azetidin-1-yl)cyclohexyl)oxy)-1-oxoisoindolin-2-yl)piperidine-2,6-dione] | – | 59 nM | > 30000 nM | > 30000 nM | 22 nM | 70.4%
